Results: ChEMBL document CHEMBL5725252, “Spirocyclic dihydro-thiazine and dihydro-oxazine BACE inhibitors, and compositions and uses thereof” (2016)

Tests used:
Beta-secretase 1 [1] = biological target: T1, Beta-secretase 1 (Homo sapiens, UniProt P56817); assay: AlphaScreen Assay: BACE1 activity can be assessed in an AlphaScreen® assay. Compounds to be assessed (e.g. compounds as described in the above examples) are serially diluted 1:4 in DMSO, then plated by diluting 10 μL of compound with 40 μl of assay buffer (1×PBS, 0.01% Tween-20, pH 7.0, 0.05% BSA). The diluted compound is transferred (4 μL per well) to a […] well assay plate and 4 μL of BACE1 enzyme (20 mg/mL) is added and incubated for 15 minutes. This assay uses a probe that is a BACE1 binding sight ligand linked to biotin, which can be displaced by test compound dependent on compound binding affinity. This of biotinylated probe (4 μL) is added and incubated for 1 hour, followed with 4 μL of donor and acceptor bead mixture and incubated for 2 hours. The fluorescent signal is read on a plate reader and the value as a function of compound concentration is used to determine the IC50.
Beta-secretase 1 [2] = biological target: T1, Beta-secretase 1; assay: FP Assay: Compounds are also assessed for BACE1 and Cathepsin D activity using an FP Assay. Compounds to be assessed (e.g. compounds as described in the above examples) are serially diluted 1:3 with DMSO and each concentration point is transferred to a 96 well plate, 6 uL per well, followed by addition of 194 uL of assay buffer (100 mM sodium acetate, pH 4.5 with 0.001% Tween-20). A 10 uL compound sample from this plate is transferred to a well of a 384 well plate and combined with 10 uL per well of BACE1 enzyme (0.3 nM in assay buffer) or Cathepsin D enzyme (1.8 nM in assay buffer) and the plate is incubated at room temperature for 30 minutes.

T1 sequence (P56817 whole entry): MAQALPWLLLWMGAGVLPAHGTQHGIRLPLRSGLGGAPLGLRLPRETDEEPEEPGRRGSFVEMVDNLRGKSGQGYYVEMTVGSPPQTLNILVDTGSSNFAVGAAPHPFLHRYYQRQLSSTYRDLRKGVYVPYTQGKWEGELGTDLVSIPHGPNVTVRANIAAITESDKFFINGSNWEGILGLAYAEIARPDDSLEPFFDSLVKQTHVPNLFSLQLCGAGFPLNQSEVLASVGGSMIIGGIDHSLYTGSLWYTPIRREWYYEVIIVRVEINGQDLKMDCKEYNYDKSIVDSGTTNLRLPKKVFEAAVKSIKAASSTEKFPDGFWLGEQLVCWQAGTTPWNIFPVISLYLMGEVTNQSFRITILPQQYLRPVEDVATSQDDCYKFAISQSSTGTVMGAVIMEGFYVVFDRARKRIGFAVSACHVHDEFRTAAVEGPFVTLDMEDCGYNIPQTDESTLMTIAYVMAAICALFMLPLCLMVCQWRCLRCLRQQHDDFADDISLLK

C[C@@]1(c2cc(/C=C/c3ccc(F)cc3)ccc2F)CC2(CCC(F)(F)CC2)OC(N)=N1
IC50 (Beta-secretase 1 [1]): 1.96 µM | IC50 (Beta-secretase 1 [2]): 13.1 µM
